Results on 7 compounds are retold here after US8703811B2, “Small molecule inhibitors of Plasmodium falciparum dihydroorotate dehydrogenase” (Genzyme Corporation, priority 2008, dated 2014).

In data set [1] the test system is P. falciparum D10-scDHODH. Description: Inhibition of transgenic D10-scDHODH parasites, [3H]-hypoxanthine uptake. To be noted: for IC50: Plasmodium falciparum, D10, read-out: D10-scDHODH IC50; for efficacy against D10-scDHODH strain compared to D10 parent strain: dose-effect curves, FIG. 5. It is filed as cell-based. As for the experimental part: (§1) P. falciparum strains D10, 3D7, HB3, and Dd2 were obtained from the Malaria Research and Reference Reagent Resource Center (Manassas, Va.). The parasite strains were maintained in vitro by method of Trager and Jensen. The inhibition of P. falciparum growth in the presence of drug was assessed by the relative reduction of [^3H]-hypoxanthine uptake as previously described. Inhibition data were fitted to Equation 1 using non-linear regression analysis except that the relative velocity of parasite growth was substituted for the rate of product formation.
Transgenic parasites expressing scDHODH were generated as described by Painter et al. except that full length scDHODH was cloned directly into the pGem3Z vector without a GFP tag. The resultant plasmid was transfected into ring stages of P. falciparum D10 by electroporation and maintained in culture using standard methods under the selection of WR99210.

Data set [2] deals with P. falciparum D10. Kind of data set: Inhibition of in vitro P. falciparum culture, [3H]-hypoxanthine uptake, D10. It is filed as cell-based. Conditions: Plasmodium falciparum, D10, Erythrocyte, read-out: D10 IC50. As for the experimental part: as §1
For data set [3], the system named is P. falciparum HB3. Description: Inhibition of in vitro P. falciparum culture, [3H]-hypoxanthine uptake, HB3. Type of data set: cell-based. Conditions: Plasmodium falciparum, HB3, Erythrocyte, read-out: HB3 IC50. As to the method: as §1
The subject of data set [4] is P. falciparum 3D7. Kind of data set: Inhibition of in vitro P. falciparum culture, [3H]-hypoxanthine uptake, 3D7. Conditions: Plasmodium falciparum, 3D7, Erythrocyte, read-out: 3D7 IC50. Type of data set: cell-based. The procedure, abridged: (§2)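 Parasite growth inhibition measured as relative reduction of [3H]-hypoxanthine uptake in in vitro cultures. Values from non-linear regression fit, using relative growth velocity in place of product-formation rate.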

Data set [5] deals with P. falciparum Dd2. Kind of data set: Inhibition of in vitro P. falciparum culture, [3H]-hypoxanthine uptake, Dd2. Type of data set: cell-based. Conditions: Plasmodium falciparum, DD2, Erythrocyte, read-out: Dd2 IC50. The procedure, abridged:
as §2

Data set [6] addresses T1, pfDHODH (Plasmodium falciparum (isolate 3D7), UniProt Q08210). Kind of data set: pfDHODH activity with FeCy as electron acceptor. Conditions: read-out: % Inhibition of Product Formation Rate with 50 μM Inhibitor, FeCy.
Procedure: Inhibitors of DHODH, as classified by the chromogen reduction assay, were also evaluated for activity using FeCy as an electron acceptor. A final concentration of 5-50 nM DHODH, 200 μM L-DHO and 100 μM FeCy in Buffer C was used in this assay. Both the reduction of FeCy and the formation of orotate was monitored at 420 nm (ε420=1 mM^−1 cm^−1) and 290 nm (ε280=2 mM^−1 cm^−1), respectively, noting that two molecules of FeCy are reduced for one molecule of L-DHO. As with the previous assays, the reaction was performed at 25° C. and initiated with the addition of enzyme.
Data set [7] in a line: Normal Human Dermal Fibroblast Toxicity Screen. It is filed as cell-based. Conditions: human, normal human dermal fibroblasts; four days exposure, Alamar Blue; read-out: Dermal Fibroblast LC50. As for the experimental part:
The Normal Human Dermal Fibroblast Toxicity Screen Protocol is designed to determine whether compound mixtures, breakouts or single compounds are toxic to normal human dermal fibroblasts. The screen involves plating the dermal fibroblasts and then exposing them to the compounds for four days, then cell viability is measured using Alamar Blue reagent.
Harvested Dermal Fibroblast cells were diluted in Growth Media to 0.25 to 0.3×10^5 cells/mL. […] NOTE: One plate, the T=0 plate required that 20-30 wells be seeded and all the other plates had 96 wells seeded. Plates were incubated in 37° C./5% CO2 incubator for 24 hours.
Alamar Blue solution (25 μL/well) was added to the T=0 plate and the plate was agitated. The plate in 37° C./5% CO2 incubator was incubated for 3 hours, agitated the and the fluorescence was measured. 10% Tween 20 stock (10 μL) was added into rows A-D in column 1 (positive control). DMSO (0.5 μL) was added into column 2 (negative control). Compounds were placed into designated wells for desired testing as follows:
Plates were mixed on the shaker, then incubated in 37° C./5% CO2 incubator for 96 hours.
Alamar Blue solution (25 μL/well) was added to the plates containing the compounds, and the plates were agitated. The plates were incubated in 37° C./5% CO2 incubator for 3 hours, agitated and then the fluorescence was measured.

A short description of data set [8]: Renal Proximal Tubule Epithelial Cell Toxicity Screen. It is filed as cell-based. As for the experimental part: The Renal Proximal Tubule Epithelial Cell Toxicity Screen is designed to determine whether compound mixtures, breakouts or single compounds are toxic to normal renal epithelial cells. […] Basically, the screen consists of plating renal epithelial cells, exposing them to the desired compound(s) for 4 days and measuring cell viability using the Alamar Blue reagent.
Harvested Kidney Epithelial cells were diluted in REGM to 1.5×10^4 cells/mL. […] NOTE: One plate, the T=0 plate required that 20-30 wells be seeded, and all the other plates had 96 wells seeded. Plates were incubated in 37° C./5% CO2 incubator for 24 hours.
Alamar Blue solution (25 μL/well) was added to the T=0 plate and mixed. The plate was incubated in 37° C./5% CO2 incubator for 4 hours, mixed and then the fluorescence was measured. 10% Tween 20 stock (10 μL) was added into rows A-D in column 1 (positive control). DMSO (0.5 μL) was added into column 2 (negative control). Compounds were placed into designated wells for desired testing as follows:
Plates were mixed on the shaker, and then incubated in 37° C./5% CO2 incubator for 96 hours. Day 6:
Alamar Blue solution (25 μL/well) was added to the plates containing the compounds and mixed. Plates were incubated in 37° C./5% CO2 incubator for 4 hours, mixed and the fluorescence was measured.

For data set [9], the target named is T1, pfDHODH. Description: DHODH chromogen reduction (DCIP) assay, pfDHODH. It is filed as biochemical, P. falciparum. To be noted: 200 μM L-DHO; for inhibition at 50 µM: 50 μM inhibitor, 100 μM CoQD, 60 μM DCIP, read-out: % Inhibition of Product Formation Rate with 50 μM Inhibitor, CoQD; for IC50: pfDHODH IC50, DCIP assay, 18 μM CoQD, 100 μM DCIP, 20 nM enzyme.

[10] abbreviates: [3H]-hypoxanthine uptake by parasite infected erythrocytes.

Like-named read-outs stand apart in the source and are kept apart here.

T1 sequence (Q08210 159-565 limits assumed): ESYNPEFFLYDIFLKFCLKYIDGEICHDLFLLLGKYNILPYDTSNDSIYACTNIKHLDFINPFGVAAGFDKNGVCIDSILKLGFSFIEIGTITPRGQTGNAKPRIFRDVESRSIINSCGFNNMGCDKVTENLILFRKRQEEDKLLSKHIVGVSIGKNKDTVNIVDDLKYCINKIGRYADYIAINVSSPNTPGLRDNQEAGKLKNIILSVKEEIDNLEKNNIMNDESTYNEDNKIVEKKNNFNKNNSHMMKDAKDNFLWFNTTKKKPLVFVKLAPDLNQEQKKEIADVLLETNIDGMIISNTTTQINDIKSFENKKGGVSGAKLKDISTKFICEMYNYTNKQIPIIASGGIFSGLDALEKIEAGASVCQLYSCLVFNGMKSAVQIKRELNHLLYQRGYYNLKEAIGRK

On to `O=C1C(O)=C([C@H]2CC[C@H](c3ccc(Cl)cc3)CC2)C(=O)c2ccccc21` [Atovaquone, reference compound], for which the IC50 in [1] is over 2000 nM; in [2] (setting [10]) it was 0.42 nM; in data set [3] (setting [10]) it was 0.22 nM; in data set [4] (setting [10]) it was 0.18 nM; in data set [5] (setting [10]) it was 0.2 nM. Further, the “efficacy against D10-scDHODH strain compared to D10 parent strain” value in data set [1] was “significantly reduced drug efficacy”.

Regarding `CCN(CC)CCCC(C)Nc1ccnc2cc(Cl)ccc12` (centres unmarked) [Chloroquine, reference compound], the IC50 in data set [1] was 13 nM; in [2], 15 nM; in data set [3] it was 8 nM; in data set [4], 10 nM; in data set [5], 180 nM. In addition, in [1], the “efficacy against D10-scDHODH strain compared to D10 parent strain” value is “equally sensitive”.

Consider `Cc1ccccc1/C=C/c1cc(O)c2ccccc2n1` [Compound 2], for which the IC50 in data set [1] was 8800 nM; in [2] (setting [10]), 300 nM; in data set [3] (setting [10]), 240 nM; in data set [9], 930 ± 100 nM; in data set [4] (setting [10]), 320 nM; in data set [5] (setting [10]), 250 nM. Further, the inhibition at 50 µM was found to be 1.2% in data set [6] and 94% in data set [9]. Further, the CC50 at 96 h in [7] and in [8] was over 62000 nM each time.

Consider `CCCCCC1CCCc2c1nc1ccccc1c2O` (centres unmarked) [Compound 3], for which the half-maximal inhibitory concentration (IC50) in [1] was over 10000 nM; in data set [2] (setting [10]), 370 nM; in data set [3] (setting [10]), 270 nM; in data set [9] it was 340 ± 100 nM; in [4] (setting [10]), 320 nM; in data set [5] (setting [10]) it was 230 nM. The figures for the inhibition at 50 µM in [6] and in [9] were 17% and 100%, respectively. For the same compound, the CC50 at 96 h in data set [7] and in data set [8] was over 62000 nM throughout.

With `Fc1cc(I)ccc1Nc1ccnc2cc(Cl)ccc12` [Compound 4], the IC50 in data set [1] is 980 nM; in data set [2] (setting [10]) it was 1000 nM; in [3] (setting [10]) it was 2200 nM; in data set [9] it was 580 ± 100 nM; in data set [4] (setting [10]), 1800 nM; in [5] (setting [10]), 2300 nM. Moreover, the inhibition at 50 µM in data set [6] was 7.7%; in [9], 97%. Further, the figures for the CC50 at 96 h in data set [7] and in data set [8] were 64000 nM and 49000 nM, respectively.

For the compound `CCOC(=O)c1[nH]c(C)c(Cc2ccc(OCC)cc2)c1C` [Compound 6], the IC50 is over 10000 nM in data set [1]; 1200 nM in [2] (setting [10]); 690 nM in [3] (setting [10]); 770 nM in [4] (setting [10]); 440 nM in data set [5] (setting [10]). Besides, the inhibition at 50 µM in [6] is 4.8%; in [9], 102%. Moreover, the CC50 at 96 h in data set [7] and in [8] was over 62000 nM throughout.

For `CCc1nc(N)nc(N)c1-c1ccc(Cl)cc1` [Pyrimethamine, reference compound], the 50% inhibitory concentration (IC50) is 47 nM in data set [1]; 55 nM in [2] (setting [10]); 940 nM in [3] (setting [10]); 36 nM in [4] (setting [10]); over 10000 nM in data set [5] (setting [10]).
